Test [1] concerns HUVEC. The test can be described thus: HUVEC tube formation assay on Matrigel. It is filed as cell-based, human. In outline:
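HUVEC (15,000/well) plated on polymerized Matrigel in complete media with or without peptide for 19 h at 37 °C. Tube networks imaged by microscopy, one random field per well, in triplicate wells across at least two independent experiments.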

Test [2] concerns HUVEC. Put plainly: HUVEC migration assay (RT-CIM). It is filed as cell-based, human. In a few lines:
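Real-time impedance (RT-CIM) transwell migration through fibronectin-coated (20 μg/mL) 8 μm membranes; 45,000 cells/well in serum-free medium ± peptides, fully supplemented EBM-2 as chemoattractant below. Cell index recorded over 20 h at 37 °C; ≥2 independent replicates, each in duplicate.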

Test [3] deals with HUVEC. The format is cell-based, human. In a few lines: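 HUVEC plated at 2000 cells/well overnight, then exposed to peptides in fully supplemented medium for three days. WST-1 added in serum-free EBM-2 for four hours and absorbance read at 450 nm. Percent live cells taken relative to untreated cells in complete medium with 0.2% DMSO.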
Test [4] has as its system MDA-MB-231 breast cancer cells. The test can be described thus: MDA-MB-231 wound healing type migration assay (Oris Pro). The format is cell-based. Here is the method:
Breast cancer cells MDA-MB-231 are not suitable for the RT-CIM type experiments due to their thin elongated phenotype, thus the inhibition of migration was investigated using a wound healing type assay. This assay was performed using the Oris Pro Migration assay (Platypus Technologies, CMA 1.101). Briefly, 20,000-25,000 cells/well in full media were added to the 96 well plate containing stoppers to block migration of cells to the center region of the wells. Cells were allowed to adhere for 4 hours, after which the stoppers were removed. Cells were washed one time with PBS and fully supplemented media, with or without compound, was added to the wells. […], cells were stained with calcein AM (0.5 μg/mL) (Invitrogen, CA) and the cells that migrated to the center of the well were quantified by fluorescence intensity measured using a Victor V plate reader (Perkin Elmer) and also imaged using a Leica or Nikon microscope.

The subject of test [5] is microvascular endothelial cells (MEC). Put plainly: MEC adhesion assay. The format is cell-based. On the procedure: (§1) Similar to the migration assays, the inhibition activity of the peptide in cellular adhesion was assessed using the RT-CIM technology. In this case, 25,000 cells/well were plated in 16 wells E-plates (Roche, Basel Switzerland) in the presence or absence of the peptide. The adhesion was monitored over time (3 hours) by measuring changes in the electrical impedance, which is a direct measure of the cells adhering on the electrodes. […] Assays were performed in at least two independent replicates and each replicate was performed using two experimental duplicates.

Test [6] has as its system HUVEC. The format is cell-based, human. To be noted: HUVEC. In outline:
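Adhesion of 25,000 cells per well, with or without peptide, followed by real-time electrical impedance on electrode plates over 3 hours. At least two independent replicates, each run in duplicate.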

For test [7], the system named is microvascular endothelial cells (MEC). The test can be described thus: MEC migration assay. It is filed as cell-based. On the procedure: (§2) The inhibitory potential of the peptides was measured using a real time migration assay system based on electrical impedance (RT-CIM, ACEA Biosciences, CA). CIM 16 well plates (Roche, 05665817001) are composed of a top and bottom chamber separated by a microporous (8 μm) polycarbonate membrane. The membrane was coated with fibronectin (20 μg/mL), and 45,000 cells/well in serum free media with or without peptides were added to the top compartment. Media with chemoattractant (i.e., fully supplemented EBM-2) was added to the bottom compartment of the chamber and the plate was incubated at 37° C. for 20 hours. The sensors integrated on the bottom side of the membrane monitor and continuously record changes in impedance as the cells move through the membrane. The RT-CIM technology allows for easy quantification of cell migration by monitoring the cell index derived from the measured impedances. Assays were performed in at least two independent replicates and each replicate was performed using two experimental duplicates.

Test [8] relates to lymphatic endothelial cells (LEC). The test can be described thus: LEC migration assay. The format is cell-based. On the procedure:
as §2

Another test relates to MDA-MB-231 xenograft. Put plainly: MDA-MB-231 orthotopic breast tumor xenograft. The format is in vivo, SCID mice. On the procedure:
For primary tumor inhibition studies, 1−2×10^6 tumor cells were injected into 4-6 wk old female SCID mice. After the tumors reached a size of 100 mm^3 the animals were randomized into groups of 10 animals each. The animals were treated with vehicle, SP2012, SP2000, or SP2024. The peptides were administered subcutaneously daily. Dosing was continued for 3 or 4 weeks and tumor sizes were measured every 3 days using calipers. The tumor volume was estimated using the formula V=a^2b/2 where a and b are the smaller and larger diameters.
For the tumor xenograft assay, animals were housed and treated according to the approved animal protocol of the Institutional Care and Use Committee at Johns Hopkins Medical Institution (JHMI). Orthotopic breast tumors were initiated in SCID mice using MDA-MB-231 cells. 2×10^6 cells per 100 μL aliquot of single cell suspension were injected in the breast mannary fat pad. Tumors reached volumes of 75 mm^3 to 100 mm^3 in approximately 14-21 days. Mice were randomized and arranged in groups (8 mice per group) with similar tumor volumes (no statistical difference among averages) and treatment was commenced. Peptides were administered once per day intraperitoneally (i.p.) at doses of 10 mg/kg (subcutaneous delivery was also tested with certain peptides). Paclitaxel was administered at 5 mg/kg once a week, and to maintain the daily treatment regime PBS was administered on the non-treatment days. Tumors were measured every fourth day using calipers and the tumor volume was calculated using the formula V=ab^2/2, where a is the larger diameter and b is the smaller diameter.

The test system of test [9] is MDA-MB-231 breast cancer cells. Put plainly: MDA-MB-231 adhesion assay. It is filed as cell-based. On the procedure: as §1
The test system of test [10] is lymphatic endothelial cells (LEC). The test can be described thus: LEC adhesion assay. It is filed as cell-based. Here is the method:
as §1

Setting [11] is: Yes/No summary, active = inhibitory potential greater than 30%.

Like-named read-outs stand apart in the source and are kept apart here. Square brackets hold non-standard residues; d marks the D form. Peptide text beside a SMILES is read from it. Abu = CC[C@H](N)C(=O)O

For `CC[C@H](NC(=O)[C@H](Cc1ccccc1)NC(=O)[C@H](CCSC)NC(=O)[C@H](Cc1ccccc1)NC(=O)[C@@H]1CCCN1C(=O)[C@H](CCSC)NC(=O)[C@@H](NC(=O)[C@H](CO)NC(=O)[C@H](Cc1ccccc1)NC(=O)[C@H](CCCNC(=N)N)NC(=O)[C@H](CCCNC(=N)N)NC(=O)[C@@H](N)CC(C)C)[C@@H](C)O)C(=O)N[C@@H](CC(N)=O)C(=O)N[C@H](C(=O)N[C@@H](CC(N)=O)C(=O)N[C@@H](CC(N)=O)C(=O)N[C@H](C(=O)N[C@@H](CC)C(=O)N[C@@H](CC(N)=O)C(=O)N[C@@H](Cc1ccccc1)C(N)=O)C(C)C)[C@@H](C)CC` [SP2012, LRRFSTMPFMFAbuNINNVAbuNF] (H-LRRFSTMPFMF[Abu]NINNV[Abu]NF-NH2; N-terminus assumed), in the test with HUVEC [1] ((l0 uM) printed in the cell), the “Tube formation Inhibition” value is on record as “Complete”. Also, in the test on HUVEC [1] (Yes/No summary), the “Activity in Tube formation” value is on record as “Yes”. The “Migration Inhibition (5 uM)” value in the test with HUVEC [2] (5 uM peptide) is 0% (5 uM). In addition, in the test on HUVEC [2] (50 uM peptide), the “Migration Inhibition (50 uM)” value came out at 68%. Further, in the test with HUVEC [2] (setting [11]), the “Activity in Migration” value is given as “Yes”. The IC50 was found to be 22 µM with HUVEC [3]; 48.1 ± 23.1 µM in the test on HUVEC [3] (HUVEC, tables 5, 8-10 and text, read-out: IC50 ± 95% CI (μM), proliferation). Further, in the test with HUVEC [3] (HUVEC, Yes/No summary), the “Activity in Proliferation” value is “Yes”. For the same molecule, the “inhibition of migration of MDA-MB-231 cells” value in test [4] is given as “strong”. Further, the “Migration of MDA-MB-231 cells into the restricted area” value in test [4] (50 μM and 5 μM treatments, 17 hours of incubation) is on record as “statistically significant versus the control”. Also, the “inhibition of adhesion of MEC” value in test [5] is “quite active”. Moreover, the “Adhesion Inhibition (100 uM)” value with HUVEC [6] (100 uM peptide) is recorded as 93.14%. Further, in the test on HUVEC [6] (setting [11]), the “Activity in Adhesion” value is “Yes”. The “inhibition of migration of MEC” value in test [7] is listed as “quite active”. Moreover, the “inhibition of migration of LEC” value in test [8] was “strong”. Also, in the test on MDA-MB-231 xenograft (MDA-MB-231 xenograft in mice, 10 mg/kg daily), the “suppression of tumor growth” value was “tumor growth was inhibited”. Also, in the test with MDA-MB-231 xenograft (after completion of the treatment at 21 days), the microvascular density entry is listed as “statistically different from one another”. In addition, the MDA-MB-231 xenograft inhibition entry with MDA-MB-231 xenograft (mice) is recorded as “Active”. For the same molecule, in test [9], the “inhibition of adhesion of MDA-MB-231 cells” value is given as “strong”. Further, the “inhibition of adhesion of LEC” value in [10] was “strong”.

The record behind these values is patent US9056923B2, “Mimetic peptides derived from collagen type IV and their use for treating angiogenesis- and lymphagiogenesis-dependent diseases” (THE JOHNS HOPKINS UNIVERSITY, priority 2010, dated 2015).
